For the test, the target named is T1, mouse TRPM3α2 (mTRPM3) ion channel (Mus musculus, UniProt J9SQF3).
T1 construct: expressed in transfected cells; host or cells: flip-in HEK293
T1 sequence (J9SQF3 1-1709 isoform J9SQF3-12): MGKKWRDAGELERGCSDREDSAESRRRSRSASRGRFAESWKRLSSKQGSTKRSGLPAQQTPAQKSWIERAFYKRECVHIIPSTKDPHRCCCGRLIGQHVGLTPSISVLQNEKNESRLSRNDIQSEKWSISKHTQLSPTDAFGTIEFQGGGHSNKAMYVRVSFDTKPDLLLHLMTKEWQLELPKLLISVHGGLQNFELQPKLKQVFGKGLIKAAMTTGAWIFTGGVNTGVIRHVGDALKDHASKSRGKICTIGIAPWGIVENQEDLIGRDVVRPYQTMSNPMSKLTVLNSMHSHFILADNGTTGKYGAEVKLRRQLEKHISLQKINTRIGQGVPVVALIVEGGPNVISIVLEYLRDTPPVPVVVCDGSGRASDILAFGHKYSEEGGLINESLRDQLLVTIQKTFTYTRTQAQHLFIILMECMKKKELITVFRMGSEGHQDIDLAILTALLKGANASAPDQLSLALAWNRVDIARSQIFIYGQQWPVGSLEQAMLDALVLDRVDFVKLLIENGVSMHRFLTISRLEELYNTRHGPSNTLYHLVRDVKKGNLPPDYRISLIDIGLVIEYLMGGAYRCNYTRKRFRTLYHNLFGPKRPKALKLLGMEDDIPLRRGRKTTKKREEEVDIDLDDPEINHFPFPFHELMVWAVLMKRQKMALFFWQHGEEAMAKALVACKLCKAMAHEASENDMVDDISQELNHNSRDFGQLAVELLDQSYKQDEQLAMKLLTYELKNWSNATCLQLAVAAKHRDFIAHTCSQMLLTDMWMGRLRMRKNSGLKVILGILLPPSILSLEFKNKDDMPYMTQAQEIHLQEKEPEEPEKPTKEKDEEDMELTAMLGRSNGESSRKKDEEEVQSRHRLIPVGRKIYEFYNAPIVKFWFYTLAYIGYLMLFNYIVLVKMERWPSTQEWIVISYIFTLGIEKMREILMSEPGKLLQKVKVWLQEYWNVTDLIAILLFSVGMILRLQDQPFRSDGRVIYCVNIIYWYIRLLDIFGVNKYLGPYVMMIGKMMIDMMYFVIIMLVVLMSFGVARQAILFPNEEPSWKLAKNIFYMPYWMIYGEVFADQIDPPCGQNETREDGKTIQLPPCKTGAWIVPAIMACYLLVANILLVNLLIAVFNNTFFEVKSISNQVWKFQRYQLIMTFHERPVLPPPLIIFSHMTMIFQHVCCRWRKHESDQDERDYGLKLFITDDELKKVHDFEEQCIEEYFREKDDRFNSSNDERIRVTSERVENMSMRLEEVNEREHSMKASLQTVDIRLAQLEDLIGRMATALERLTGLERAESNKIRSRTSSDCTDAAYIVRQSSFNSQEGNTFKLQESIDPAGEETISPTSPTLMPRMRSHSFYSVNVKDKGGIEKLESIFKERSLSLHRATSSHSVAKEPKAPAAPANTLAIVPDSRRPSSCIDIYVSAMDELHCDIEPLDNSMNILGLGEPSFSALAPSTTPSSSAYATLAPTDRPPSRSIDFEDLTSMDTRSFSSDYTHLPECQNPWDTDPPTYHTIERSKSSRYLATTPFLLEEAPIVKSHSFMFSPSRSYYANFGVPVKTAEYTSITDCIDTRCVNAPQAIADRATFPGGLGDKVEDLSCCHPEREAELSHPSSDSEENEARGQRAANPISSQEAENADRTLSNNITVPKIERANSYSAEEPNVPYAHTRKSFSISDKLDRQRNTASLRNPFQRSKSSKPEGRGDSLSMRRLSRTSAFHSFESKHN
The test can be described thus: Monitoring the TRPM3 ion channel driven Ca2+ uptake (Fluo-4 AM assay). Particulars: TRPM3 overexpressing flip-in HEK293 cells, channel stimulated with Pregnenolone sulfate (PS) 50 μM. It is filed as cell-based. The method, boiled down: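 Flp-In HEK293 cells overexpressing mTRPM3α2, loaded with Fluo-4 AM and added to wells holding compound plus 50 μM pregnenolone sulfate in Ca2+-containing Krebs buffer. Fluorescence (ex 485/em 535) read right after cell addition. Inhibition normalised to vehicle and positive-control inhibitor; IC50 derived.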
As a reminder, the IC50 is the concentration that inhibits the measured activity by half. Low values mean greater potency, high ones weaker potency. The compound `Cc1sc2ccc(OCc3cccnc3O)cc2c1C(=O)NC1(C(=O)O)CCOCC1` [Cpd 072, 4-{5-[(2-hydroxypyridin-3-yl)methoxy]-2-methyl-1-benzothiophene-3-amido}oxane-4-carboxylic acid] showed an IC50 greater than 20 µM. On to `Cc1sc2ccc(OCc3cccnc3C(F)(F)F)cc2c1C(=O)NC1CCOC1` (centres unmarked) [Cpd 097, 2-methyl-N-(oxolan-3-yl)-5-{[2-(trifluoromethyl)pyridin-3-yl]methoxy}-1-benzothiophene-3-carboxamide], for which the IC50 is less than 1 µM. The result for `Cc1sc2ccc(OCc3ccccc3)cc2c1C(=O)NC1CCN(C)CC1` [Cpd 127, 5-(benzyloxy)-2-methyl-N-(1-methylpiperidin-4-yl)-1-benzothiophene-3-carboxamide] reads 1 to 20 µM; that for `O=C(O)c1c(C(F)F)sc2ccc(OCc3ccccc3)cc12` [Cpd 150, 5-(benzyloxy)-2-(difluoromethyl)-1-benzothiophene-3-carboxylic acid], less than 1 µM; that for `Cc1sc2ccc(OCc3ccccc3)cc2c1C(=O)NCc1cccc(O)n1` [Cpd 104, 5-(benzyloxy)-N-[(6-hydroxypyridin-2-yl)methyl]-2-methyl-1-benzothiophene-3-carboxamide], greater than 20 µM. The result for `CC(C)(CNC(=O)c1c(C(F)F)sc2ccc(OCc3ccccc3)cc12)N1CCOCC1` [Cpd 013, 5-(benzyloxy)-2-(difluoromethyl)-N-[2-methyl-2-(morpholin-4-yl)propyl]-1-benzothiophene-3-carboxamide] reads 1 to 20 µM; that for `Cc1sc2ccc(OCc3cccnc3C(F)(F)F)cc2c1C(=O)NCc1cccc(O)n1` [Cpd 105, N-[(6-hydroxypyridin-2-yl)methyl]-2-methyl-5-{[2-(trifluoromethyl)pyridin-3-yl]methoxy}-1-benzothiophene-3-carboxamide], less than 1 µM. As for `Cc1sc2ccc(OCc3cccnc3C(F)(F)F)cc2c1C(=O)NC1(CO)CCOCC1` [Cpd 083, N-[4-(hydroxymethyl)oxan-4-yl]-2-methyl-5-{[2-(trifluoromethyl)pyridin-3-yl]methoxy}-1-benzothiophene-3-carboxamide], the IC50 fell in the range of 1 to 20 µM. Then `CNC(=O)C(C)(CO)NC(=O)c1c(C)sc2ccc(OCc3cnc(C)s3)cc12` (single isomer, unassigned) [Cpd 132 - En2, 3-hydroxy-N,2-dimethyl-2-({2-methyl-5-[(2-methyl-1,3-thiazol-5-yl)methoxy]-1-benzothiophen-3-yl}formamido)propanamide], with less than 1 µM; and `Cc1ncsc1COc1ccc2sc(C)c(C(=O)NC3CCNC3=O)c2c1` (centres unmarked) [Cpd 041, 2-methyl-5-[(4-methyl-1,3-thiazol-5-yl)methoxy]-N-(2-oxopyrrolidin-3-yl)-1-benzothiophene-3-carboxamide], with less than 1 µM; and `Cc1ncsc1COc1ccc2sc(C)c(C(=O)Nc3ccn(C)n3)c2c1` [Cpd 040, 2-methyl-5-[(4-methyl-1,3-thiazol-5-yl)methoxy]-N-(1-methyl-1H-pyrazol-3-yl)-1-benzothiophene-3-carboxamide], with less than 1 µM.

For `CNC(=O)C1(NC(=O)c2c(C)sc3ccc(OCc4cnc(C)s4)cc23)CCOC1` (single isomer, unassigned) [Cpd 133 - En1, N-methyl-3-{2-methyl-5-[(2-methyl-1,3-thiazol-5-yl)methoxy]-1-benzothiophene-3-amido}oxolane-3-carboxamide], the IC50 was less than 1 µM. Then `Cc1ncc(COc2ccc3sc(C)c(C(=O)NC4(C(N)=O)CCOCC4)c3c2)s1` [Cpd 021, 4-{2-methyl-5-[(2-methyl-1,3-thiazol-5-yl)methoxy]-1-benzothiophene-3-amido}oxane-4-carboxamide], with less than 1 µM; and `Cc1sc2ccc(OCc3cccnc3C(F)(F)F)cc2c1C(=O)NCCN(C)C` [Cpd 117, N-[2-(dimethylamino)ethyl]-2-methyl-5-{[2-(trifluoromethyl)pyridin-3-yl]methoxy}-1-benzothiophene-3-carboxamide], with less than 1 µM.
